Laboratory results as given in EP0059983B1, “Substituted biphenyl compounds for use as a medicament” (THE WELLCOME FOUNDATION LIMITED, priority 1981, dated 1982).

Columns and labels:
[1] = test system: hypercholesterolemic male rat; experiment: Inhibition of dietary induced hypercholesterolemia in male rats (serum lipids); assay type: in vivo; design: key to Cholesterol lowering / Triglyceride lowering: In = Inactive at dose tested; A = Activity> clofibrate; M = Activity≤ clofibrate; conditions: for Cholesterol lowering / Triglyceride lowering: rats, efficacy compared to clofibrate, dose not given; for % change in serum from control HDL: HDL cholesterol; for % change in serum from control HDL / % change in serum from control VLDL & LDL / % change in serum from control Cholesterol / % change in serum from control Triglyceride: male rats, oral; for % change in serum from control VLDL & LDL: VLDL & LDL cholesterol (difference between total and HDL cholesterol); for % change in serum from control Cholesterol / % change in serum from control Triglyceride: twice daily 3 days and once on day 4
Procedure: Hypercholesterolemia was produced in male rats after 3 days in a diet of 0.4% cholesterol and 0.2% sodium cholate. Each group contained 4 rats. Compounds tested were given orally twice daily for 3 days and once on day 4. Control animals received the vehicle, methyl cellulose. The cholesterol-containing diet and compound treatment were started at the same time. Animals were bled before dietary and compound treatment and 3 hr after the last dose of compound on day 4. All bleedings were after a 4 hr fast. Total serum cholesterol, triglyceride and high density lipoprotein (HDL) cholesterol determined by the procedure and test kit supplied by Dow Diagnostics (Trademark of the Dow Chemical Co. Laboratories, Indianapolis, IN). Very low and low density lipoprotein (VLDL & LDL) cholesterol were determined by the difference between total and HDL cholesterol.
By the method of Example 5 various compounds of formula (IA) were assessed for their ability to reduce cholesterol and triglyceride levels in rats. The compounds were compared in efficacy to clofibrate.

rats = experiment: Oral toxicity in rats; assay type: in vivo; conditions: oral administration to rats at upto 1 g/kg bodyweight

Compound: Cc1ccc(-c2ccccc2C(=O)O)cc1 [CH3, 2-(4-Methylphenyl)-benzoic acid]
- Cholesterol lowering [1]: M
- Triglyceride lowering [1]: M

Compound: COc1ccc(-c2ccccc2C(=O)O)cc1 [OCH3, 2-(4-Methoxyphenyl)-benzoic acid]
- Cholesterol lowering [1]: M
- Triglyceride lowering [1]: A

Compound: CC(C)c1ccc(-c2ccccc2C(=O)O)cc1 [I C3H7, 2-(4-isoPropylphenyl)-benzoic acid]
- Cholesterol lowering [1]: A
- Triglyceride lowering [1]: A

Compound: CC(C)(C)c1ccc(-c2ccccc2C(=O)O)cc1 [t C4H9, 2-(4-t-Butylphenyl)-benzoic acid]
- Cholesterol lowering [1]: M
- Triglyceride lowering [1]: A

Compound: O=C(O)c1ccccc1-c1ccc(F)cc1 [F, 2-(4-Fluorophenyl)-benzoic acid]
- Cholesterol lowering [1]: In
- Triglyceride lowering [1]: M

Compound: CCc1ccc(-c2ccccc2C(=O)O)cc1 [Example C2H5, 2-(4-Ethylphenyl)-benzoic acid]
- Cholesterol lowering [1]: A
- Triglyceride lowering [1]: A

Compound: CCCCc1ccc(-c2ccccc2C(=O)O)cc1 [n C4H9, 2-(4-n-butylphenyl)benzoic acid]
- Cholesterol lowering [1]: A
- Triglyceride lowering [1]: A

Compound: O=C(O)c1ccccc1-c1ccc(C(F)(F)F)cc1 [IA(R=CF3), 2-(4-trifluoromethylphenyl)benzoic acid]
- % change in serum from control HDL ([1]; dose 25 mg/kg/day): −6%
- % change in serum from control HDL ([1]; dose 50 mg/kg/day): +10%
- % change in serum from control HDL ([1]; dose 150 mg/kg/day): −15%
- % change in serum from control VLDL & LDL ([1]; dose 25 mg/kg/day): −46%
- % change in serum from control VLDL & LDL ([1]; dose 50 mg/kg/day): −64%
- % change in serum from control VLDL & LDL ([1]; dose 150 mg/kg/day): −52%
- % change in serum from control Cholesterol ([1]; dose 25 mg/kg/day): −40%
- % change in serum from control Triglyceride ([1]; dose 25 mg/kg/day): −43%
- % change in serum from control Cholesterol ([1]; dose 50 mg/kg/day): −56%
- % change in serum from control Triglyceride ([1]; dose 50 mg/kg/day): −53%
- % change in serum from control Cholesterol ([1]; dose 100 mg/kg/day): −51%
- % change in serum from control Triglyceride ([1]; dose 100 mg/kg/day): −57%
- % change in serum from control Cholesterol ([1]; dose 150 mg/kg/day): −40%
- % change in serum from control Triglyceride ([1]; dose 150 mg/kg/day): −60%
- Cholesterol lowering [1]: A
- Triglyceride lowering [1]: A
- deaths (rats): no deaths were observed

Compound: CCOC(=O)C(C)(C)Oc1ccc(Cl)cc1 [Clofibrate, reference compound]
- % change in serum from control HDL ([1]; dose 100 mg/kg/day): −21%
- % change in serum from control HDL ([1]; dose 200 mg/kg/day): −28%
- % change in serum from control VLDL & LDL ([1]; dose 100 mg/kg/day): 0%
- % change in serum from control VLDL & LDL ([1]; dose 200 mg/kg/day): −29%
- % change in serum from control Cholesterol ([1]; dose 25 mg/kg/day): 0%
- % change in serum from control Triglyceride ([1]; dose 25 mg/kg/day): 0%
- % change in serum from control Cholesterol ([1]; dose 50 mg/kg/day): 0%
- % change in serum from control Triglyceride ([1]; dose 50 mg/kg/day): −31%
- % change in serum from control Cholesterol ([1]; dose 100 mg/kg/day): 0%
- % change in serum from control Triglyceride ([1]; dose 100 mg/kg/day): −33%
- % change in serum from control Cholesterol ([1]; dose 200 mg/kg/day): −28%
- % change in serum from control Triglyceride ([1]; dose 200 mg/kg/day): −40%

Compound: O=C(O)c1ccccc1-c1ccc(Cl)cc1 [Cl, 2-(4-Chlorophenyl)-benzoic acid]
- Cholesterol lowering [1]: M
- Triglyceride lowering [1]: In
